# Experimental data reported in patent US6472369B1, “Anticancer compounds and methods” (The Regents of the University of Michigan, priority 1996, dated 2002).
# Where no end group is shown, it is not given here. [ ]: non-standard residue; d: D form. hCys = N[C@@H](CCS)C(=O)O
# Key:
# [1] = system: rat metastatic prostate carcinoma MatLyLu (MLL) cells; assay: SU-ECM invasion assay, rat MatLyLu prostate carcinoma cells; format: cell-based; details: 10% FCS, FIG. 8
# Experimental: (§1) Adult Strongylocentrotus purpuratus sea urchins were obtained from Pacific BioMarine, and their embryos were cultured to the early pluteus stage in artificial sea water at 15° C. SU-ECM were prepared from them by treatment with nonionic detergent and strerilized by dilution in the appropriate media.
# (§2) Cells were harvested by rinsing in Hanks' balanced salt solution, followed by brief treatment with 0.25% trypsin, 0.02% EDTA, and pelleting and resuspension in the appropriate medium with or without 5% FCS at a density of about 50,000 cells per ml. When appropriate, purified bovine plasma fibronectin (Sigma), purified 120 kDa chymotryptic fragment (Gibco BRL), PHSRN (SEQ ID NO:1) or PHSCN (SEQ ID NO:86) peptides (synthesized at the Biomedical Research Core Facilities of the University of Michigan), or GRGDSP (SEQ ID NO:83) or GRGESP (SEQ ID NO:84) peptides (Gibco BRL) were added to the resuspended cells prior to placement of the cells on SU-ECM. In each well of a plate used for an invasion assay, SU-ECM were placed in 0.5 ml of the appropriate medium, and 0.5 ml of the resuspended cells dropped on their exterior surfaces. Invasion assays were incubated 1 to 16 hours prior to assay. If some circumstances, invasion assays were fixed in phosphate-buffered saline (PBS) with 2% formaldehyde for 5 minutes at room temperature, then rinsed into PBS.
# (§3) Invasion assays were coded and scored blindly by microscopic examination under phase contrast at 200- and 400-fold magnification. Each cell contacting an SU-ECM was scored for its position relative to the exterior or interior surfaces. A cell was judged to have invaded if it was located on an interior surface below the focal plane passing through the upper surface of the SU-ECM, but above the focal plane passing through its lower surface. The minimum viability of the cells in each assay was always ascertained at the time of assay by determining the fraction of spread, adherent cells on the bottom of each well scored.
# (§4) An invasion frequency is defined as the fraction of cells in contact with basement membranes which were located in their interiors at the time of assay. Thus, an invasion frequency of 1 denotes invasion by 100% of the cells in contact with basement membranes. Invasion frequencies were determined multiple times for each cell type assayed. For each type of cell assayed the mean and standard deviation of the invasion frequencies were calculated.
# The result of adding a varying concentration of the PHSCN (SEQ ID NO:86) peptide to PHSRN-induced (SEQ ID NO:1) MLL cells in serum free media is shown in FIG. 7B, where 100 ng per ml of PHSRN (SEQ ID NO:1) was used to induce invasion.
# The procedure described in Example 10, was employed using SU-ECM substrates in 10% FCS and PHS(hC)N (SEQ ID NO:85) instead of PHSCN (SEQ ID NO:86). The result of adding varying concentrations of the PHS(hC)N (SEQ ID NO:85) peptide to serum-induced MLL cells indicates this peptide also has an inhibitory affect on cell invasion (see FIG. 8).
# [2] = system: metastatic SUM-52 PE breast cancer cells; assay: SU-ECM invasion assay, SUM-52 PE breast cancer cells; format: cell-based, human; details: SUM-52 cells
# Experimental: Human breast carcinoma cell lines SUM 52 PE and SUM 44 PE were originally cultured from the pleural effusions of patients with metastatic breast cancer; and SUM 102 was cultured from a primary, microinvasive breast carcinoma (Ethier, S. P., Mahack, M. L., Gullick, W. J., Frank, T. S., and Weber, B. L. Differential isolation of normal luminal mammary epithelial cells and breast cancer cells from primary and metastatic sites using selective media. Cancer Res. 53: 627-635).
# as §1, §2, §3, §4
# The method of Example 4 is employed, with the addition of varying concentrations of the PHSCN (SEQ ID NO:86) peptide.
# Thus, the procedure in Example 4 provides a method for determining the inhibitory potential of the PHSCN (SEQ ID NO:86) peptide by comparing the number of cell invasions in the presence of the PHSCN (SEQ ID NO:86) peptide, with the number of cell invasions in the absence of the PHSCN (SEQ ID NO:86) peptide.
# [3] = system: metastatic DU-145 prostate cancer cells; assay: SU-ECM invasion assay, DU-145 prostate cancer cells; format: cell-based, human; details: DU-145 cells
# [4] = system: neonatal, human fibroblasts; assay: Fibroblast invasion of SU-ECM basement membranes; format: cell-based; details: for stimulation of fibroblast invasion of basement membranes in vitro: in the presence of serum or under serum-free conditions
# Experimental: as §1
# as §2, with “If some circumstances, invasion assays were fixed in phosphate-buffered saline (PBS) with 2% formaldehyde for 5 minutes at room temperature, then rinsed into PBS.” left out
# as §3, with “A cell was judged to have invaded if it was located on an interior surface below the focal plane passing through the upper surface of the SU-ECM, but above the focal plane passing through its lower surface.” left out
# as §4, with “Thus, an invasion frequency of 1 denotes invasion by 100% of the cells in contact with basement membranes.” left out, “calculated. […]” for “calculated.”
# [5] = system: DU-145 metastatic prostate cancer cells; assay: Invasion of fibronectin-depleted Matrigel by DU-145 cells; format: cell-based, human; details: 0.5 μl/ml peptide added to gelatin-panned Matrigel, FIG. 3
# Experimental: This example describes a purification approach for removal of plasma fibronectin (and/or cellular fibronectin) from a substrate (Matrigel). In this example, removal was attempted by successive panning on gelatin. Eight wells of 24-well plate were coated with a 2% gelatin solution (the gelatin was obtained from Becton Dickinson Labware, Catalog #11868). The wells were filled with the gelatin solution which had been heated to 50 C. and incubated for 3 minutes. Then the solution was removed and the wells were allowed to air dry. Following drying, the wells were thoroughly rinsed with ddH2O followed by two rinses with PBS. The plates were again allowed to dry; thereafter they were stored at −20 C. until use. Matrigel was thawed on ice and then added to one of the wells of a gelatin-coated plate (between 800 μl and 1 ml of Matrigel was added to a well of a 24-well plate). The plate was placed in a bucket of ice in a 4 C. room on an orbital shaker where the Matrigel was incubated in the well for two hours (although overnight incubation can be used). Following the incubation, the Matrigel was moved from the first well to a second well and then incubated for two hours under the same conditions. This process was repeated until the Matrigel had been incubated on all eight wells of the gelatin-coated plate.
# Following the depletion of the Matrigel, it was collected in Eppendorf tubes. […]
# [6] = system: normal, neonatal fibroblasts; assay: Invasion of gelatin- and antibody-depleted Matrigel by fibroblasts; format: cell-based; details: Matrigel depleted by gelatin and antibody panning, FIG. 4
# Experimental: Anti-fibronectin antibody-coated wells: Wells of a 24-well plate were coated with an anti-fibronectin antibody. A mouse monoclonal antibody to human fibronectin was obtained from Oncogene Science (Catalog #CP13). Each well was incubated with 1 ml of antibody at a concentration of 30 μl/ml for 2 hours at room temperature. Each well was then incubated with a solution of 3% BSA in PBS for 2 hours at room temperature. Following the two incubation periods, the wells were thoroughly washed with PBS and stored at −20 C. until use.
# Depleting Matrigel of Fibronectin: Matrigel was panned over eight gelatin-coated wells (as described above in Example 2) to remove most of the fibronectin and its fragments. Thereafter, the Matrigel was placed in the antibody-coated wells to remove any remaining fragments of fibronectin which contain the cell-binding domain but not the gelatin-binding domain. The Matrigel was incubated in an ice bucket on an orbital shaker at 4 C. for 2 hours. Once the Matrigel was depleted, it was collected in Eppendorf tubes. The firbonectin-depleted Matrigel was plated on a 48-well plate (150 μl/well), sterilized under a UV light for 10 minutes and incubated at 37 C. overnight. The Matrigel formed a gel and the following day, cells were added to the wells. […]
# [7] = system: keratinocytes; assay: Keratinocyte invasion of serum-free SU-ECM; format: cell-based
# Excerpt: Since, during wound reepithelialization, keratinocytes migrate through the connective tissue of the provisional matrix to “wall off” portions of the wound, as well as through the adjacent stroma, it is not surprising that they are also stimulated to migrate through the matrix of SU-ECM invasion substrates by the PHSRN (SEQ ID NO:1) sequence. […] Recruitment of fibroblasts or monocytes/macrophages whose paracrine, regulatory effects on a variety of neighboring cells are required for the early stages of wound healing is contemplated as a highly efficient and effective way to stimulate the cascade of regulatory interactions involved in wound healing because these cells will secrete the active factors or cytokines in the correct temporal sequences and spatial locations to ensure their optimal activities. Because it efficiently induces keratinocyte migration through the extracellular matrix in vitro, the PHSRN (SEQ ID NO:1) peptide is also likely to stimulate wound reepithelialization directly. The use of the PHSRN (SEQ ID NO:1) peptide or structurally related molecules according to the present invention is to stimulate the entry of cells such as fibroblasts and monocyte/macrophages into the provisional matrix of a wound, so that the entering cells themselves secrete the factors and cytokines active in inducing or potentiating wound healing. […]
substance,measurement,setting,value
PHS(hC)N: homo-cysteine containing peptide (PHS[hCys]N),inhibition of serum-induced invasion of SU-ECM,[1]; higher concentrations,completely inhibits invasion
same,inhibition of serum-induced invasion of SU-ECM,[1]; lower concentrations,substantially inhibits invasion
intact plasma fibronectin: purified bovine plasma fibronectin (Sigma); a significant component of serum,induction of invasion of the SU-ECM substrate,[2],induced to invade
same,induction of invasion of the SU-ECM substrate,[3],induced to invade
same,stimulation of fibroblast invasion of basement membranes in vitro,[4],fails to stimulate fibroblast invasion
Pro-His-Ser-Arg-Asn (PHSRN),induction of invasion of the SU-ECM substrate,[2],induced to invade
same,induction of invasion of the SU-ECM substrate,[3],induced to invade
same,restoration of DU-145 invasiveness on depleted Matrigel,[5],sufficient to restore the full DU-145 invasiveness
same,induction of fibroblast invasiveness on depleted Matrigel,[6],invasiveness of the fibroblasts could be induced
same,stimulation of fibroblast invasion of basement membranes in vitro,[4],sufficient to stimulate fibroblast invasion
same,induction of fibroblast invasion of SU-ECM,[4]; serum-free SU-ECM,induced
same,stimulation of keratinocyte invasion,[7],stimulate keratinocyte invasion
